Assay results: ChEMBL document CHEMBL5104119, “Miniproteins in medicinal chemistry” (Bioorg Med Chem Lett, 2022)

Key:
[1] = Antiproliferative activity against human PBMC cells assessed as cell growth inhibition incubated for 10 mins by CFSE staining based flow cytometric analysis; assay type: toxicity
T-cell line = experiment: Immunomodulatory activity in human T cells assessed as inhibition of IL-2 production incubated for 15 mins by FACSCalibur flow cytometry analysis; assay type: functional, cell-based; details: 0.25 h
[2] = target: Neuronal acetylcholine receptor; alpha9/alpha10 (Homo sapiens, UniProt Q9GZZ6+Q9UGM1); experiment: Inhibition of human nAChR alpha9alpha10 expressed in Xenopus laevis oocytes holding potential of -70 mV by voltage-clamp based electrophysiological method; assay type: cell-based
Sequence of Neuronal acetylcholine receptor; alpha9/alpha10 (Q9UGM1 whole entry): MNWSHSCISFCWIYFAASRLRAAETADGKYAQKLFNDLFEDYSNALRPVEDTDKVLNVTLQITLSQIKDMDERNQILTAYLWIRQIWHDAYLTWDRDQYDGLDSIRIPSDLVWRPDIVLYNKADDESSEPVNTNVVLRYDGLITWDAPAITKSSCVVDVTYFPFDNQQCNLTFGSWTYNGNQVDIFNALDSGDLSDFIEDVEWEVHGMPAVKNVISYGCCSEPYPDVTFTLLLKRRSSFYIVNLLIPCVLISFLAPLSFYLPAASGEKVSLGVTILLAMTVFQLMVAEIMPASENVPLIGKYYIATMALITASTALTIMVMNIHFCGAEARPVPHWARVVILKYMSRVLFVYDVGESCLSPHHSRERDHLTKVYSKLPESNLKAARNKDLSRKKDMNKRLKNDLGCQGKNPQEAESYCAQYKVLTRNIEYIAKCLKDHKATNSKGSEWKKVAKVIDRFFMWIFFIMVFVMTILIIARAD
Sequence of Neuronal acetylcholine receptor; alpha9/alpha10 (Q9GZZ6 whole entry): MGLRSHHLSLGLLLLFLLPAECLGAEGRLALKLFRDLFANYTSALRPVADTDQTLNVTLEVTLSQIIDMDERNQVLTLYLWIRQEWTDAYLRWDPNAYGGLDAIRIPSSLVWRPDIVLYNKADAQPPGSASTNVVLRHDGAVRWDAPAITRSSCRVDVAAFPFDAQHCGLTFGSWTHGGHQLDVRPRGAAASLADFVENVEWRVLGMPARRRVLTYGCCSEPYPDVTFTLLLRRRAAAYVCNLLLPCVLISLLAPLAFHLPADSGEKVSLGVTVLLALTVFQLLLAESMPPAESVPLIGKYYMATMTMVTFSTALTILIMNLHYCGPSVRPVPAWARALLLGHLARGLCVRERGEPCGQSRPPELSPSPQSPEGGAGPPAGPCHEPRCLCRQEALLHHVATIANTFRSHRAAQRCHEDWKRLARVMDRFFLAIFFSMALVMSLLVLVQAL

[3] = tested on: Human immunodeficiency virus; experiment: Antiviral activity against HIV infected in human HeLa cells expressing CD4-LTR-beta-gal assessed as inhibition of syncytia formation measured after 15 hrs by 5-bromo-4-chloro-3-indolyl-beta-D-galactoside staining based colorimetry assay; assay type: functional, organism-based; details: Human immunodeficiency virus 1, HeLa
[4] = tested on: Human immunodeficiency virus 1; experiment: Antiviral activity against recombinant luciferase-expressing HIV-1 infected in HEK293T cells incubated for 48 hr by luciferase assay based luminometer analysis; assay type: functional, organism-based; details: Human immunodeficiency virus 1, HEK-293T

## CC(C)C[C@@H]1NC(=O)CNC(=O)[C@H](CC(N)=O)NC(=O)[C@H](CCCNC(=N)N)NC(=O)[C@H]([C@@H](C)O)NC(=O)[C@@H]2CSSC[C@@H]3NC(=O)[C@H]([C@@H](C)O)NC(=O)CNC(=O)CNC(=O)[C@H](C(C)C)NC(=O)[C@@H]4CSSC[C@H](NC(=O)[C@H]([C@@H](C)O)NC(=O)[C@H](CSSC[C@H](NC(=O)[C@H](C(C)C)NC(=O)[C@@H]5CCCN5C1=O)C(=O)NCC(=O)N[C@@H](CCC(=O)O)C(=O)N[C@@H]([C@@H](C)O)C(=O)N4)NC(=O)CNC(=O)[C@@H]1CCCN1C(=O)[C@H]([C@@H](C)O)NC(=O)[C@H](CC(N)=O)NC3=O)C(=O)N[C@@H](CO)C(=O)N[C@@H](Cc1c[nH]c3ccccc13)C(=O)N1CCC[C@H]1C(=O)N[C@@H](C(C)C)C(=O)N2
[1]
  IC50 at 10 min: 2900 nM

## CC(C)C[C@@H]1NC(=O)CNC(=O)[C@H](CC(N)=O)NC(=O)[C@H](CCCNC(=N)N)NC(=O)[C@H]([C@@H](C)O)NC(=O)[C@@H]2CSSC[C@@H]3NC(=O)[C@H]([C@@H](C)O)NC(=O)CNC(=O)CNC(=O)[C@H](C(C)C)NC(=O)[C@@H]4CSSC[C@H](NC(=O)[C@H](CCCCN)NC(=O)[C@H](CSSC[C@H](NC(=O)[C@H](C(C)C)NC(=O)[C@@H]5CCCN5C1=O)C(=O)NCC(=O)N[C@@H](CCC(=O)O)C(=O)N[C@@H]([C@@H](C)O)C(=O)N4)NC(=O)CNC(=O)[C@@H]1CCCN1C(=O)[C@H]([C@@H](C)O)NC(=O)[C@H](CC(N)=O)NC3=O)C(=O)N[C@@H](CO)C(=O)N[C@@H](Cc1c[nH]c3ccccc13)C(=O)N1CCC[C@H]1C(=O)N[C@@H](C(C)C)C(=O)N2
T-cell line
  IC50: 1900 nM

## C[C@@H](O)[C@@H]1NC(=O)[C@@H]2CSSC[C@H](C(=O)N[C@@H](Cc3ccc(O)cc3)C(=O)O)NC(=O)[C@H](CCC(N)=O)NC(=O)[C@H](Cc3ccc(O)c(I)c3)NC(=O)[C@H](CCCNC(=N)N)NC(=O)[C@H](CSSC[C@H](NC(=O)CN)C(=O)N2)NC(=O)[C@H](CCCNC(N)=O)NC(=O)[C@@H]2CCCN2C(=O)[C@H](CC(=O)O)NC1=O
[2]
  IC50: 1.5 nM

## Ac-WMEWDREINNYTSLIEESQNQQEKNEQELL-NH2
[3]
  IC50: 0.55 nM
[4]
  IC50: 2.1 nM
